Test results: patent publication US20110105389A1 (priority 2009, published 2011)

Test system: male Zucker fatty rats
Test: Subchronic (7 day) oral administration in male Zucker fatty rats, Method B14
Type: in vivo, rat
Text: B14. Effects of Subchronic Administration of Representative Compounds of the Invention in Male Zucker Fatty Rats
The objective of this study is to determine the subchronic effects of test compounds on body weight change, food and water consumption, as well as glucose homeostasis and insulin levels in male Zucker fatty rats up to 7 days upon oral administration. The male Zucker fatty rat was selected as an insulin resistance and genetically defined obesity model which is sensitive to the effect of different insulin sensitizers in acute as well as in chronic settings.
Rats were individually housed in rodent cages with soft wood bedding on the bottom and equipped with water bottles. All individual cages were clearly labeled with a cage card indicating study number, group, animal number and dose level. Each animal was uniquely identified by an animal number. The animal number was designated the day the animals arrived at the animal facility. The animal room environment was controlled (targeted ranges: temperature 22±2° C.; relative humidity 50±10%; light/dark cycle: 12 hours light, 12 hours dark, lights on from 06:00 AM to 06:00 PM). A regular rodent diet (Charles River 5075 rodent chow, Purina Mills, Canada) was provided to the animals ad libitum, after food weighing. Municipal tap water was provided to the animals ad libitum via water bottles. Fresh tap water was provided after water bottle weighing.
An acclimation period of approximately 7 days for all groups was allowed between the receipt of animals and the start of treatment to accustom the rats to the laboratory environment. On experimental day −7, animals were stratified according to body weight into an appropriate number of groups of 4 or 8 animals each.
Test compound was administered, as a solution, orally, at the doses indicated. The dose volume was 5 mL/kg/day. Groups were dosed once daily around 8:00 a.m. On Day 3, on half of the animals (Subset A) and on Day 4 on the other half (Subset B), an OGTT was performed 2 hrs post-dosing (around 10:00 a.m.). The OGTT was repeated the same way on Days 7 (Subset A) and 8 (Subset B).
For the study animals, the data collected from study Days −7 to 8 are reported. Body weights were recorded for all animals on Day −7 prior to initiation of dosing, at the time of group assignment and daily throughout the study period (Day 1-8). Food and water intake was measured daily throughout the study period (Day 1-8). On Day 1 (Subset A), Day 2 (Subset B), Day 3 (Subset A), Day 4 (Subset B), Day 7 (Subset A) and Day 8 (Subset B), animals from Groups 2 and 3 were sampled for blood into EDTA coated tubes (K2-EDTA microtainer tubes, Becton Dickinson) from a tail vein (˜100 μl) 2 hrs post-dose for PK analysis. Blood was centrifuged at 4000 rpm for 10 min. at 4° C., and the resulting plasma transferred into non-coated tubes and stored at −80° C. until analysis.
An oral glucose tolerance test (OGTT) was carried out in animals of all groups on Day 3 (half of the animals) as well as on day 4 (other half of the animals). This was done 2 hrs post-dose. Animals were subjected to an overnight fast (food removed the day before at 5:00 PM). Blood samples of approximately 20 μL each for plasma glucose and 230 μL for plasma insulin measurements were collected into EDTA coated tubes (K2-EDTA microtainer tubes, Becton Dickinson) from a tail vein, at 0 (pre-glucose), 15, 30, 60, and 120 min after oral administration of 1.5 g/kg glucose (dextrose, Sigma Aldrich, 450 mg/mL dosing solution). The glucose solution was administered by oral gavage via a stainless steel feeding needle (18×2″, Popper @ Sons, cat. # 20068-642, VWR). While glucose concentrations were determined from a 20 μL drop of blood (Accu-Chek Aviva glucometers, Roche Diagnostics), the remaining 230 μL was centrifuged at 4000 rpm for 10 min. at 4° C., and the resulting plasma transferred into non-coated tubes and stored a −80° C. for insulin determination. […]

plasma levels (PK analysis) (oral administration): sufficient plasma levels
SMILES: CC[C@@H]1CCc2ccc(F)cc2OCCN[C@@H](C(C)C)C(=O)N(C)[C@@H](C(C)O)C(=O)N[C@H](Cc2c[nH]c3ccccc23)C(=O)N1 (some centres unmarked) [Compound 1505]
food consumption on a daily basis vs vehicle controls (10 mg/kg, 2 day timepoint): significant reductions | cumulative food consumption (30 mg/kg oral, FIG. 10): significant decrease | net body weight (30 mg/kg oral, over the 7 day study period, FIG. 9): significant reduction | food consumption on a daily basis vs vehicle controls (30 mg/kg, 2 day timepoint): significant reductions | OGTT blood glucose versus untreated controls (30 mg/kg, at both day 3 and day 7): decrease | insulin sensitivity index (attaining significance at the higher dose): higher | free fatty acids (both treatment groups): significantly reduced | total cholesterol (both treatment groups): significantly reduced | food consumption on a daily basis vs vehicle controls (higher dose (30 mg/kg), through the 6 day timepoint): remained significant | insulin levels (area under the curve, AUC) in OGTT (rat, in vivo): lowering effect
